Assay: molar heat capacity at constant pressure; xn = mol fraction of the nth substance listed
Settings: 101 kPa, Liquid, Large sample (1 g) DSC

O=CN1CCOCC1 [N-formylmorpholine] + O
molar heat capacity at constant pressure [J/K/mol]
Settings	x1 = 0.0997	x1 = 0.1998	x1 = 0.2992	x1 = 0.3993	x1 = 0.4975	x1 = 0.5978	x1 = 0.6954	x1 = 0.7988	x1 = 0.8946	x1 = 1
303.15 K	86	98	111	123	134	145	154	164	174	185
308.15 K	86	99	111	124	135	146	156	166	176	186
313.15 K	87	100	113	125	137	148	158	168	178	188
318.15 K	87	100	114	126	138	149	159	169	179	189
323.15 K	88	101	115	127	140	150	161	171	181	191
328.15 K	88	102	116	129	141	152	162	173	183	193
333.15 K	89	103	117	130	142	153	164	174	184	195
338.15 K	90	104	118	131	144	155	166	176	186	197
343.15 K	91	106	120	133	146	157	168	178	189	200
348.15 K	91	107	121	135	147	158	169	180	190	201
353.15 K	92	107	122	135	148	159	170	181	191	202

Source: the NIST ThermoML archive (doi:10.1021/je800999s)
